IC50 data for 17 molecules are collected here from patent US9914737B2, “Triazolopyrimidinone or triazolopyridinone derivatives, and use thereof” (ST PHARM CO., LTD., priority 2014, dated 2018).

The experiment concerns the target T1, tankyrase 1 (Homo sapiens, UniProt O95271).
T1 construct: purchased Trevigen 4700-096-K
T1 sequence (O95271 1-1327): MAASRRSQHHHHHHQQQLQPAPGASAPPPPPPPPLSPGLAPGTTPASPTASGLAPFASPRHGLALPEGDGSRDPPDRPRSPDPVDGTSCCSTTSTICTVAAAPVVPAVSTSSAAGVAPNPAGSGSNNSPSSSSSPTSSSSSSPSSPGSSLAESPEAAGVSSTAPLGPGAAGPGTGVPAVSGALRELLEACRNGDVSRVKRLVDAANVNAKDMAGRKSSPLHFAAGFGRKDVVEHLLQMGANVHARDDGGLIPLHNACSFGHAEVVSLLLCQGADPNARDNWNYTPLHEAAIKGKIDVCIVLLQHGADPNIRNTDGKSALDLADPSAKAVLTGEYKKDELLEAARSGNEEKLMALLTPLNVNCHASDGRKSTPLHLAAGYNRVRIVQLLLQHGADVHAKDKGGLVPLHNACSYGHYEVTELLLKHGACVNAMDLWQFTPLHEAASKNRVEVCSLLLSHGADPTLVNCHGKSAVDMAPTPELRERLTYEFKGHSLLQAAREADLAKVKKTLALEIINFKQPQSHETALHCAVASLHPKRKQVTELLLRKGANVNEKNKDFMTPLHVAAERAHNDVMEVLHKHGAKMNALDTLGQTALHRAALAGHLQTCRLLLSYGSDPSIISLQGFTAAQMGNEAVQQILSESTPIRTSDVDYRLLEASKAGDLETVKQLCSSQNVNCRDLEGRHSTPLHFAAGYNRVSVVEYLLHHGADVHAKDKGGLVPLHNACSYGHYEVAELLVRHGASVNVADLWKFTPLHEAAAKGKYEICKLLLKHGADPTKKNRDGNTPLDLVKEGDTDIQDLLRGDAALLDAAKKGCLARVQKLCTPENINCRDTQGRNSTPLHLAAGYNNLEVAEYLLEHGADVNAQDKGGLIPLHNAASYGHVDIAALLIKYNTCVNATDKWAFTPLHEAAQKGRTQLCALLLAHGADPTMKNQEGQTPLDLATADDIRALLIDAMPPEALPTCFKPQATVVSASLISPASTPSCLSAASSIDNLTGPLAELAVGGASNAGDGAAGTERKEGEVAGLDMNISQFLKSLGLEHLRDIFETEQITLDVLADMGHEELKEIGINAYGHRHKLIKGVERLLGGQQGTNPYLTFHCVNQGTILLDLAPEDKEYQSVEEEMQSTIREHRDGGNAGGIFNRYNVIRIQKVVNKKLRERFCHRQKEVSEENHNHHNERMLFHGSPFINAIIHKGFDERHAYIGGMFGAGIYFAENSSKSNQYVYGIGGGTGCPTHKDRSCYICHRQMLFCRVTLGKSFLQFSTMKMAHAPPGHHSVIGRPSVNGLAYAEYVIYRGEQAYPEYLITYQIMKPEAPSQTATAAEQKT
In words: Analysis of activity of tankyrase 1 (Trevigen kit, ELISA absorbance at 450 nm). It counts as biochemical. Here is the method: Activities of novel compounds synthesized according to Examples 1 to 72 against tankyrase 1 were analyzed using a Trevigen kit (Cat. No. 4700-096-K). Poly PAR histone protein-coated 96-well plate, anti-PAR monoclonal antibody and goat anti-mouse IgG-HRP were used for measurement of absorbance by ELISA method. Specifically, 20× I-PAR assay buffer was diluted to 1× by adding water, and 50 μL of the diluted buffer was added to each well of the 96-well plate followed by reacting at rt for 30 min. Then, the supernatant was completely removed from each well and 10 μL of 1× I-PAR assay buffer and 15 μL of assay substrate were added to each well along with 1 μL of a 50× solution of inhibitors to be tested, which were the compounds obtained in the Examples 1 to 72. 10 mUnits/μL of tankyrase 1 enzyme was diluted 50-fold with 1× I-PAR assay buffer and 25 μL of the diluted enzyme was added to each well and reacted while stirring at rt for 30 min. One without any compound of the present invention was used as a positive control and another containing 1× I-PAR assay buffer with the same volume instead of tankyrase 1 enzyme was used as a negative control. Upon completion of the reaction, 200 μL of PBSX, which was prepared by adding 0.1% triton X-100 to PBS, was added and removed and this washing process was repeated twice. Washing was repeated twice more using PBS in the same manner. 5× antibody diluent was diluted with distilled water to 1× concentration, 50 μL of the diluted goat anti-mouse IgG-HRP to 1/2000 was added to each well and reacted while stirring at rt for 30 min. Washes were carried out twice using PBSX and PBS, respectively. After adding 50 μL of TACS-sapphire to each well of the plate, the plate was blocked from light to react for 10 min to 15 min and the color of the reaction solution turned blue. To stop the reaction, 50 μL of 0.2N HCl was added to turn the solution yellow. Finally, the absorbance of the resulting solution was measured at 450 nm.

The mark [1] stands for this setting: tankyrase 1 enzyme, Trevigen kit Cat. No. 4700-096-K, 30 min at rt, read-out: TNKS1 (IC50).

Where a name gives a salt, the structure may show the parent alone. Read-outs that look alike come from different tables or passages of the source.

`CN1CCN(CCOc2cc(F)c(N3CCN(c4nc5c(nnn5C)c(=O)[nH]4)CC3)c(F)c2)CC1` [compound 32, 5-(4-(2,6-Difluoro-4-(2-(4-methylpiperazin-1-yl)ethoxy)phenyl)piperazin-1-yl)-3-methyl-3H-[1,2,3]triazolo[4,5-d]pyrimidin-7(6H)-one]: the IC50 under setting [1] was determined as 120 nM.

In turn, `CC(C)Oc1cc(F)c(N2CCN(c3nc4c(nnn4C)c(=O)[nH]3)CC2)c(F)c1` [compound 9, 5-(4-(2,6-Difluoro-4-isopropoxyphenyl)piperazin-1-yl)-3-methyl-3H-[1,2,3]triazolo[4,5-d]pyrimidin-7(6H)-one] had an IC50 of 60.9 nM.

`CN1CCN(Cc2cc(F)c(N3CCN(c4nc5c(nnn5C)c(=O)[nH]4)CC3)c(F)c2)CC1` [compound 14, 5-(4-(2,6-Difluoro-4-((4-methylpiperazin-1-yl)methyl)phenyl)piperazin-1-yl)-3-methyl-3H-[1,2,3]triazolo[4,5-d]pyrimidin-7(6H)-one]: the half-maximal inhibitory concentration (IC50) under setting [1] stood at 41.5 nM.

Consider `Cn1nnc2c(=O)[nH]c(N3CCN(c4c(F)cc(F)cc4F)CC3)nc21` [compound 22, 3-Methyl-5-(4-(2,4,6-trifluorophenyl)piperazin-1-yl)-3H-[1,2,3]triazolo[4,5-d]pyrimidin-7(6H)-one], for which it took 49.7 nM to reach half-maximal inhibition (IC50).

On to `Cn1nnc2c(=O)[nH]c(N3CCN(c4c(F)cc(OCCN5CCCCC5)cc4F)CC3)cc21` [compound 55, 6-(4-(2,6-Difluoro-4-(2-(piperidin-1-yl)ethoxy)phenyl)piperazin-1-yl)-1-methyl-1H-[1,2,3]triazolo[4,5-c]pyridin-4(5H)-one], for which the IC50 under setting [1] came to 29.3 nM.

`COCCOc1cc(F)c(N2CCN(c3nc4c(nnn4C)c(=O)[nH]3)CC2)c(F)c1` [compound 2, 5-(4-(2,6-Difluoro-4-(2-methoxyethoxy)phenyl)piperazin-1-yl)-3-methyl-3H-[1,2,3]triazolo[4,5-d]pyrimidin-7(6H)-one] registered an IC50 of 29.9 nM.

With `Cn1nnc2c(=O)[nH]c(N3CCN(c4c(F)cc(OCCCCCC(=O)O)cc4F)CC3)nc21` [compound 19, 6-(3,5-Difluoro-4-(4-(3-methyl-7-oxo-6,7-dihydro-3H-[1,2,3]triazolo[4,5-d]pyrimidin-5-yl)piperazin-1-yl)phenoxy)hexanoic acid], the IC50 under setting [1] is 80 nM.

As for `Cn1nnc2c(=O)[nH]c(N3CCN(c4c(F)cc(OCCCN5CCCCC5)cc4F)CC3)nc21` [compound 33, 5-(4-(2,6-Difluoro-4-(3-(piperidin-1-yl)propoxy)phenyl)piperazin-1-yl)-3-methyl-3H-[1,2,3]triazolo[4,5-d]pyrimidin-7(6H)-one], the IC50 under setting [1] was 51.3 nM.

`CC(=O)OCCOc1cc(F)c(N2CCN(c3nc4c(nnn4C)c(=O)[nH]3)CC2)c(F)c1` [compound 8, 2-(3,5-Difluoro-4-(4-(3-methyl-7-oxo-6,7-dihydro-3H-[1,2,3]triazolo[4,5-d]pyrimidin-5-yl)piperazin-1-yl)phenoxy)ethyl acetate]: the IC50 under setting [1] came to 46.9 nM.

Turning to `CN(C)CCOc1cc(F)c(N2CCN(c3nc4c(nnn4C)c(=O)[nH]3)CC2)c(F)c1` [compound 6, 5-(4-(4-(2-(Dimethylamino)ethoxy)-2,6-difluorophenyl)piperazin-1-yl)-3-methyl-3H-[1,2,3]triazolo[4,5-d]pyrimidin-7(6H)-one], the IC50 under setting [1] amounted to 16.3 nM.

Regarding `Cn1nnc2c(=O)[nH]c(N3CCN(c4c(F)cc(OCCN5CCC(C)(O)CC5)cc4F)CC3)nc21` [compound 43, 5-(4-(2,6-Difluoro-4-(2-(4-hydroxy-4-methylpiperidin-1-yl)ethoxy)phenyl)piperazin-1-yl)-3-methyl-3H-[1,2,3]triazolo[4,5-d]pyrimidin-7(6H)-one], the IC50 under setting [1] was determined as 50.9 nM.

Consider `Cn1nnc2c(=O)[nH]c(N3CCN(c4c(F)cc(CN5CCOCC5)cc4F)CC3)cc21` [compound 60, 6-(4-(2,6-Difluoro-4-(morpholinomethyl)phenyl)piperazin-1-yl)-1-methyl-1H-[1,2,3]triazolo[4,5-c]pyridin-4(5H)-one], for which the IC50 under setting [1] was determined as 25.8 nM.

For `C[C@H](N)C(=O)OCCOc1cc(F)c(N2CCN(c3cc4c(nnn4C)c(=O)[nH]3)CC2)c(F)c1` [compound 58, (S)-2-(3,5-difluoro-4-(4-(1-methyl-4-oxo-4,5-dihydro-1H-[1,2,3]triazolo[4,5-c]pyridin-6-yl)piperazin-1-yl)phenoxy)ethyl2-aminopropanoate hydrochloride], the IC50 under setting [1] was found to be 13.4 nM.

For `Cn1nnc2c(=O)[nH]c(N3CCN(c4c(F)cc(OCCN5CCC(O)CC5)cc4F)CC3)nc21` [compound 42, 5-(4-(2,6-Difluoro-4-(2-(4-hydroxypiperidin-1-yl)ethoxy)phenyl)piperazin-1-yl)-3-methyl-3H-[1,2,3]triazolo[4,5-d]pyrimidin-7(6H)-one], the IC50 under setting [1] was determined as 51.4 nM.

On to `Cn1nnc2c(=O)[nH]c(N3CCN(c4c(F)cc(OCCN5CCCC5)cc4F)CC3)cc21` [compound 67, 6-(4-(2,6-Difluoro-4-(2-(pyrrolidin-1-yl)ethoxy)phenyl)piperazin-1-yl)-1-methyl-1H-[1,2,3]triazolo[4,5-c]pyridin-4(5H)-one], for which, under setting [1], the IC50 is 18.6 nM.

As for `CN(C)CCOc1cc(F)c(N2CCN(c3cc4c(nnn4C)c(=O)[nH]3)CC2)c(F)c1` [compound 56, 6-(4-(4-(2-(Dimethylamino)ethoxy)-2,6-difluorophenyl)piperazin-1-yl)-1-methyl-1H-[1,2,3]triazolo[4,5-c]pyridin-4(5H)-one], the IC50 under setting [1] was found to be 27.5 nM.

As for `Cn1nnc2c(=O)[nH]c(N3CCN(c4c(F)cc(OCCO)cc4F)CC3)cc21` [compound 57, 6-(4-(2,6-Difluoro-4-(2-hydroxyethoxy)phenyl)piperazin-1-yl)-1-methyl-1H[1,2,3]triazolo[4,5-c]pyridin-4(5H)-one], under setting [1], the IC50 was 7.98 nM.
